In data set [1] the target is T1, Amyloid-beta precursor protein (Homo sapiens, UniProt P05067). Description: Inhibition of amyloid beta (1 to 42) (unknown origin) self-aggregation at 20 uM after 24 hrs by thioflavin-T fluorescence assay relative to control.
Data set [2] deals with T1, Amyloid-beta precursor protein. The experiment in a line: Inhibition of amyloid beta (1 to 42) (unknown origin) self-aggregation after 24 hrs by thioflavin-T fluorescence assay.
Data set [3] has as its system SH-SY5Y. Description: Neuroprotective activity against H2O2-induced oxidative stress in human SH-SY5Y cells assessed as cell viability at 12.5 uM pre-incubated for 1 hr followed by H2O2 addition and measured after 4 hrs by MTT assay relative to control. The format is functional. The note with it: read-out: Activity. (Tetrazolium dyes change colour on reduction, which living cells bring about.)

In data set [4] the test system is SH-SY5Y. Description: Neuroprotective activity against H2O2-induced oxidative stress in human SH-SY5Y cells assessed as cell viability at 25 uM pre-incubated for 1 hr followed by H2O2 addition and measured after 4 hrs by MTT assay relative to control. It is filed as functional. The note with it: read-out: Activity.
The test system of data set [5] is SH-SY5Y. The experiment in a line: Neuroprotective activity against H2O2-induced oxidative stress in human SH-SY5Y cells assessed as cell viability at 50 uM pre-incubated for 1 hr followed by H2O2 addition and measured after 4 hrs by MTT assay relative to control. The conditions noted are these: read-out: Activity. The format is functional.
The test system of data set [6] is SH-SY5Y. The experiment in a line: Cytotoxicity against human SH-SY5Y cells at 50 uM after 24 hrs by MTT assay. It is filed as cell-based.
Data set [7] concerns Mus musculus. The experiment in a line: Cognitive enhancing effect in Kunming mouse model of amyloid beta (1 to 42) oligomer-induced memory impairment assessed as […] in spontaneous alternation behaviors at 17.5 to 35 mg/kg/day, po starting from day 1 of amyloid beta (1 to 42) oligomer treatment and measured on day 7 by Y-maze test. It is filed as functional, organism-based.

The subject of data set [8] is Mus musculus. Description: Toxicity in Kunming mouse model of amyloid beta (1 to 42) oligomer-induced memory impairment assessed as effect on number of arm entries at 17.5 to 35 mg/kg/day, po starting from day 1 of amyloid beta (1 to 42) oligomer treatment and measured on day 7 by Y-maze test. The conditions noted are these: in vivo. The format is organism-based.
For data set [9], the system named is Mus musculus. The experiment in a line: Memory enhancing effect in Kunming mouse model of amyloid beta (1 to 42) oligomer-induced memory impairment assessed as increase in preferential index in retention session of 1 hr at 17.5 to 35 mg/kg/day, po starting from day 1 of amyloid beta (1 to 42) oligomer treatment and measured on day 7 by novel object recognition test. The format is functional, organism-based.

In data set [10] the test system is Mus musculus. Description: Cognitive enhancing effect in Kunming mouse model of amyloid beta (1 to 42) oligomer-induced memory impairment increase in time spent in target quadrant by measuring increase in number of platform crossings at 17.5 to 35 mg/kg/day, po starting from day 1 of amyloid beta (1 to 42) oligomer treatment and measured on day 12 by Morris water maze test. It is filed as functional, organism-based.

Data set [11] concerns Mus musculus. Description: Cognitive enhancing effect in Kunming mouse model of amyloid beta (1 to 42) oligomer-induced memory impairment assessed as longer escape latency at 17.5 to 35 mg/kg, po starting from day 1 of amyloid beta (1 to 42) oligomer treatment and measured on day 7 by passive avoidance test. It is filed as functional, organism-based.
In data set [12] the test system is Mus musculus. Description: Cognitive enhancing effect in Kunming mouse model of amyloid beta (1 to 42) oligomer-induced memory impairment assessed as induction of fewer entries into dark compartment at 17.5 to 35 mg/kg, po starting from day 1 of amyloid beta (1 to 42) oligomer treatment and measured on day 7 by passive avoidance test. The format is functional, organism-based.

Data set [13] has as its system Mus musculus. The experiment in a line: Neuroprotective activity in Kunming mouse model of amyloid beta (1 to 42) oligomer-induced memory impairment assessed as reduction in neural degeneration in CA1 region at 17.5 to 35 mg/kg, po starting from day 1 of amyloid beta (1 to 42) oligomer treatment and measured on day 7 by Nissl's staining-based assay. The format is functional, organism-based.

In data set [14] the test system is Mus musculus. The experiment in a line: Neuroprotective activity in Kunming mouse model of amyloid beta (1 to 42) oligomer-induced memory impairment assessed as reduction in neuronal degeneration by measuring clear and intact neurons in CA1 and CA3 region at 17.5 to 35 mg/kg, po starting from day 1 of amyloid beta (1 to 42) oligomer treatment and measured on day 7 by TUNEL assay. It is filed as functional, organism-based.

Data set [15] has as its system Mus musculus. Description: Neuroprotective activity in Kunming mouse model of amyloid beta (1 to 42) oligomer-induced memory impairment assessed as reduction in neuronal degeneration by measuring reduction in degenerative changes in nucleus of CA1 and CA3 region at 17.5 to 35 mg/kg, po starting from day 1 of amyloid beta (1 to 42) oligomer treatment and measured on day 7 by TUNEL assay. The format is functional, organism-based.

Data set [16] relates to Mus musculus. Description: Neuroprotective activity amyloid beta (1 to 42) oligomer-induced memory impaired Kunming mouse assessed as reduction in apoptotic cells in CA1 and CA3 hipocampal neurons at 35 mg/kg, po starting from day 1 of amyloid beta (1 to 42) oligomer treatment and measured on day 7 by TUNEL assay. The format is functional, organism-based.
Data set [17] concerns the target T1, Amyloid-beta precursor protein. Description: Potency index, ratio of IC50 for curcumin to IC50 for test compound for inhibition of amyloid beta (1 to 42) (unknown origin) self-aggregation after 24 hrs by thioflavin-T fluorescence assay.
The test system of data set [18] is Mus musculus. The experiment in a line: Memory enhancing effect in Kunming mouse model of amyloid beta (1 to 42) oligomer-induced memory impairment assessed as increase in preferential index in retention session of 1 hr at 17.5 mg/kg/day, po starting from day 1 of amyloid beta (1 to 42) oligomer treatment and measured on day 7 by novel object recognition test. It is filed as functional, organism-based.

Data set [19] has as its system Mus musculus. The experiment in a line: Cognitive enhancing effect in Kunming mouse model of amyloid beta (1 to 42) oligomer-induced memory impairment assessed as longer escape latency at 35 mg/kg, po starting from day 1 of amyloid beta (1 to 42) oligomer treatment and measured on day 7 by passive avoidance test. It is filed as functional, organism-based.
The subject of data set [20] is Mus musculus. Description: Cognitive enhancing effect in Kunming mouse model of amyloid beta (1 to 42) oligomer-induced memory impairment assessed as induction of fewer entries into dark compartment at 35 mg/kg, po starting from day 1 of amyloid beta (1 to 42) oligomer treatment and measured on day 7 by passive avoidance test. It is filed as functional, organism-based.

Calls of active or inactive are those of the source. No cut-off for these calls is given here.

T1 sequence (P05067 whole entry): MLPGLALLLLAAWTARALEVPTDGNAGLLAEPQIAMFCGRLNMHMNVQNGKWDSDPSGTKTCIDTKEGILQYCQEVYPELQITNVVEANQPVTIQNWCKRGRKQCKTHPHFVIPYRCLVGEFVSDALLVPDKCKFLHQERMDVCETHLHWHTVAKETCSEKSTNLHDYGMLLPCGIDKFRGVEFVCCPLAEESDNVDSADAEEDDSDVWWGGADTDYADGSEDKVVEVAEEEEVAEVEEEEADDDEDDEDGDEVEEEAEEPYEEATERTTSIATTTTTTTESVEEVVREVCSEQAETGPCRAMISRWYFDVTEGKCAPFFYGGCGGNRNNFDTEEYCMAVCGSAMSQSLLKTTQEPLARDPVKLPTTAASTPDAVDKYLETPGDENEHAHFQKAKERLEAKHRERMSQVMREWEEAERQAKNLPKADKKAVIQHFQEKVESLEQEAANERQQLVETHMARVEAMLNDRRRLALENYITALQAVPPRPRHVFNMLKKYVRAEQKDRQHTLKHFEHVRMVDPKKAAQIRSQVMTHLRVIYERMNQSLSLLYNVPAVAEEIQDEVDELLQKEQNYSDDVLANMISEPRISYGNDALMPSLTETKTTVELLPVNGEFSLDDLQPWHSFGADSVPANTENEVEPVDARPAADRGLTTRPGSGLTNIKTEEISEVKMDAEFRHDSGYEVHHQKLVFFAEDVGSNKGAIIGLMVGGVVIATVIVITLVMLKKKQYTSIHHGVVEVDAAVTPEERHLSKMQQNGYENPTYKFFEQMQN

As for `C[C@H]1[C@H]2[C@H](C[C@H]3[C@@H]4CC[C@@H]5C[C@@H](OCc6ccccc6)CC[C@]5(C)[C@H]4CC[C@]23C)O[C@@H]1CC[C@H](C)C(=O)NCc1cn(Cc2ccc(Cl)cc2)nn1`, in data set [1], the inhibition amounted to 70.5%.

For the compound `C[C@H]1CC[C@@]2(OC1)O[C@H]1C[C@H]3[C@@H]4CC[C@@H]5C[C@@H](O)CC[C@]5(C)[C@H]4CC[C@]3(C)[C@H]1[C@@H]2C` [SARSASAPOGENIN], the inhibition in data set [1] was found to be 16.4%. The same compound returned an IC50 in [2] greater than 100 µM. Also, the viability at 12.5 µM in the data set on SH-SY5Y [3] stood at 68.2%. Further, the viability at 25 µM in the data set with SH-SY5Y [4] came out at 71%. Moreover, the viability at 50 µM in the data set with SH-SY5Y [5] is 71.3%.

In data set [1], `CCCn1cc(CNC(=O)[C@@H](C)CC[C@H]2O[C@H]3C[C@H]4[C@@H]5CC[C@@H]6C[C@@H](OCc7ccccc7)CC[C@]6(C)[C@H]5CC[C@]4(C)[C@H]3[C@@H]2C)nn1` returned an inhibition of 21.8%.

On to `CC(C)n1cc(CNC(=O)[C@@H](C)CC[C@H]2O[C@H]3C[C@H]4[C@@H]5CC[C@@H]6C[C@@H](OCc7ccccc7)CC[C@]6(C)[C@H]5CC[C@]4(C)[C@H]3[C@@H]2C)nn1`, for which the inhibition in data set [1] was found to be 52.6%.

Take `C[C@H]1[C@H]2[C@H](C[C@H]3[C@@H]4CC[C@@H]5C[C@@H](OCc6ccccc6)CC[C@]5(C)[C@H]4CC[C@]23C)O[C@@H]1CC[C@H](C)C(=O)NCc1cn(Cc2ccncc2)nn1`: the inhibition in data set [1] is 20.8%.

In the case of `COc1cc(Cn2cc(CNC(=O)[C@@H](C)CC[C@H]3O[C@H]4C[C@H]5[C@@H]6CC[C@@H]7C[C@@H](OCc8ccccc8)CC[C@]7(C)[C@H]6CC[C@]5(C)[C@H]4[C@@H]3C)nn2)cc(OC)c1`, the inhibition in data set [1] amounted to 31.5%.

`C[C@H]1[C@H]2[C@H](C[C@H]3[C@@H]4CC[C@@H]5C[C@@H](OCc6ccccc6)CC[C@]5(C)[C@H]4CC[C@]23C)O[C@@H]1CC[C@H](C)C(=O)NCc1cn(Cc2ccccc2)nn1` showed an inhibition in [1] of 64.2%.

`C[C@H]1[C@H]2[C@H](C[C@H]3[C@@H]4CC[C@@H]5C[C@@H](OCc6ccccc6)CC[C@]5(C)[C@H]4CC[C@]23C)O[C@@H]1CC[C@H](C)C(=O)NCc1cn(Cc2cscn2)nn1` gave an inhibition in data set [1] of 75.1%. Besides, half-maximal inhibition in [2] (IC50) required 8.28 µM. Moreover, the Activity result with SH-SY5Y [6] and with Mus musculus [8] was “Non-Toxic” in each case. Moreover, in the data set with SH-SY5Y [3], the viability at 12.5 µM was 71.6%. For the same compound, the viability at 25 µM in the data set on SH-SY5Y [4] is 73.3%. The viability at 50 µM in the data set on SH-SY5Y [5] worked out at 84.9%. Moreover, the result with Mus musculus [7], with Mus musculus [9], with Mus musculus [10], with Mus musculus [11], with Mus musculus [12] and in the data set on Mus musculus [13] was Active. Besides, the result in the data set on Mus musculus [14], in the data set with Mus musculus [15] and in the data set on Mus musculus [16] was Active. Further, the Ratio IC50 in data set [17] stood at 1.8.

In turn, `Cc1ccc(Cn2cc(CNC(=O)[C@@H](C)CC[C@H]3O[C@H]4C[C@H]5[C@@H]6CC[C@@H]7C[C@@H](OCc8ccccc8)CC[C@]7(C)[C@H]6CC[C@]5(C)[C@H]4[C@@H]3C)nn2)cc1` had an inhibition in [1] of 71.2%.

Consider `Cc1c(C)c2c(c(C)c1O)CCC(C)(C(=O)O)O2` (stereo not given) [TROLOX], for which the viability at 12.5 µM with SH-SY5Y [3] turned out to be 78.4%. Besides, the viability at 25 µM in the data set with SH-SY5Y [4] is 80.1%. For the same compound, the viability at 50 µM in the data set on SH-SY5Y [5] worked out at 78.4%.

`C[C@H]1[C@H]2[C@H](C[C@H]3[C@@H]4CC[C@@H]5C[C@@H](OCc6ccccc6)CC[C@]5(C)[C@H]4CC[C@]23C)O[C@@H]1CC[C@H](C)C(=O)NCc1cn(Cc2ccc(F)cc2)nn1`: the inhibition in data set [1] was determined as 37.5%.

Turning to `C[C@H]1[C@H]2[C@H](C[C@H]3[C@@H]4CC[C@@H]5C[C@@H](OCc6ccccc6)CC[C@]5(C)[C@H]4CC[C@]23C)O[C@@H]1CC[C@H](C)C(=O)NCc1cn(Cc2ccc([N+](=O)[O-])cc2)nn1`, the inhibition in data set [1] turned out to be 70.7%.

`C[C@H]1[C@H]2[C@H](C[C@H]3[C@@H]4CC[C@@H]5C[C@@H](OCc6ccccc6)CC[C@]5(C)[C@H]4CC[C@]23C)O[C@@H]1CC[C@H](C)C(=O)NCc1cn(C)nn1` showed an inhibition in [1] of 8.34%.

As for `COc1ccc(Cn2cc(CNC(=O)[C@@H](C)CC[C@H]3O[C@H]4C[C@H]5[C@@H]6CC[C@@H]7C[C@@H](OCc8ccccc8)CC[C@]7(C)[C@H]6CC[C@]5(C)[C@H]4[C@@H]3C)nn2)cc1`, the inhibition in data set [1] is 84.7%. Further, in data set [2], inhibition was half-maximal at 5.84 µM (IC50). Further, the Activity entry with SH-SY5Y [6] and with Mus musculus [8] was “Non-Toxic” each time. In addition, the viability at 12.5 µM with SH-SY5Y [3] stood at 71.8%. For the same compound, in the data set with SH-SY5Y [4], the viability at 25 µM was 80.9%. Also, the viability at 50 µM with SH-SY5Y [5] is 63.1%. The outcome in the data set with Mus musculus [7], in the data set with Mus musculus [18], with Mus musculus [10], in the data set on Mus musculus [19], with Mus musculus [20] and in the data set with Mus musculus [13] was Active. The outcome with Mus musculus [14], in the data set on Mus musculus [15] and in the data set on Mus musculus [16] was Active. In addition, in data set [17], the Ratio IC50 came out at 2.6.

`COc1cccc(Cn2cc(CNC(=O)[C@@H](C)CC[C@H]3O[C@H]4C[C@H]5[C@@H]6CC[C@@H]7C[C@@H](OCc8ccccc8)CC[C@]7(C)[C@H]6CC[C@]5(C)[C@H]4[C@@H]3C)nn2)c1` registered an inhibition in data set [1] of 64.8%.

As to `CCn1cc(CNC(=O)[C@@H](C)CC[C@H]2O[C@H]3C[C@H]4[C@@H]5CC[C@@H]6C[C@@H](OCc7ccccc7)CC[C@]6(C)[C@H]5CC[C@]4(C)[C@H]3[C@@H]2C)nn1`, the inhibition in data set [1] was 11.8%.

Turning to `C[C@H]1[C@H]2[C@H](C[C@H]3[C@@H]4CC[C@@H]5C[C@@H](OCc6ccccc6)CC[C@]5(C)[C@H]4CC[C@]23C)O[C@@H]1CC[C@H](C)C(=O)NCc1cn(Cc2ccc(Br)cc2)nn1`, the inhibition in [1] was found to be 55.8%.

One may read the inhibition as the drop in the measured response relative to a control, in per cent. In general, IC50 refers to the concentration that gives 50% inhibition. Higher therefore signals a need for much substance.
